According to patent US10660334B2, “Fused bicyclic heterocycle derivatives as pesticides” (Bayer CropScience Aktiengesellschaft, priority 2016, dated 2020):

Columns and labels:
Ctenocephalides felis [1] = experiment: Ctenocephalides felis in vitro contact test with adult cat fleas; format: in vivo; conditions: application rate 5 μg/cm^2 (=500 g/ha), after 48 h
Protocol: Ctenocephalides felis—In Vitro Contact Tests with Adult Cat Fleas For the coating of the test tubes, 9 mg of active ingredient are first dissolved in 1 ml of acetone p.a. and then diluted to the desired concentration with acetone p.a. 250 μl of the solution are distributed homogeneously on the inner walls and the base of a 25 ml glass tube by turning and rocking on an orbital shaker (rocking rotation at 30 rpm for 2 h). With 900 ppm of active ingredient solution and internal surface area 44.7 cm^2, given homogeneous distribution, an area-based dose of 5 μg/cm^2 is achieved. After the solvent has evaporated off, the tubes are populated with 5-10 adult cat fleas (Ctenocephalides felis), sealed with a perforated plastic lid and incubated in a horizontal position at room temperature and ambient humidity. After 48 h, efficacy is determined. To this end, the tubes are stood upright and the fleas are knocked to the base of the tube. Fleas which remain motionless at the base or move in an uncoordinated manner are considered to be dead or moribund. […] 100% efficacy means that all the fleas were dead or moribund. 0% efficacy means that no fleas were harmed.

[2] = log P by HPLC on reversed-phase column (EEC Directive 79/831 Annex V.A8), acidic range; format: physicochemical; conditions: reversed-phase C18 HPLC column; HPLC reversed-phase C18, 55° C., pH 2.7, 0.1% aqueous formic acid and acetonitrile; read-out: log P (HCOOH)
Protocol: The log P values are measured according to EEC Directive 79/831 Annex V.A8 by HPLC (high-performance liquid chromatography) on a reversed-phase column (C18). Temperature: 55° C. The LC-MS determination in the acidic range is effected at pH 2.7 with 0.1% aqueous formic acid and acetonitrile (containing 0.1% formic acid) as eluents; linear gradient from 10% acetonitrile to 95% acetonitrile. Called log P (HCOOH) in the table.

Myzus persicae [3] = experiment: Myzus persicae oral test; format: in vivo; conditions: 120 h, application rate 4 ppm, after 5 days, read-out: efficacy (aphids killed)
Protocol: Myzus persicae—Oral Test Solvent: 100 parts by weight of acetone To produce a suitable active ingredient formulation, 1 part by weight of active ingredient is dissolved with the stated parts by weight of solvent and made up to the desired concentration with water. 50 μl of the active ingredient preparation are transferred into microtitre plates and made up to a final volume of 200 μl with 150 μl of IPL41 insect medium (33%+15% sugar). Subsequently, the plates are sealed with parafilm, which a mixed population of green peach aphids (Myzus persicae) within a second microtitre plate is able to puncture and imbibe the solution. After 5 days, the efficacy in % is determined. 100% means that all the aphids have been killed; 0% means that no aphids have been killed.

Myzus persicae [4] = experiment: Myzus persicae spray test; format: in vivo; conditions: foliar, 120 h, spray on Chinese cabbage leaf discs, after 5 days, read-out: efficacy (aphids killed); for pest or weed control at 100 g/ha: application rate 100 g/ha; for pest or weed control at 20 g/ha: application rate 20 g/ha
Protocol: Myzus persicae—Spray Test Solvent: 78 parts by weight of acetone • • 1.5 parts by weight of dimethylformamide Emulsifier: alkylaryl polyglycol ether To produce a suitable active ingredient formulation, 1 part by weight of active ingredient is dissolved with the specified parts by weight of solvent and made up to the desired concentration with water containing an emulsifier concentration of 1000 ppm. To produce further test concentrations, the formulation is diluted with emulsifier-containing water. Discs of Chinese cabbage leaves (Brassica pekinensis) infested by all stages of the green peach aphid (Myzus persicae) are sprayed with an active ingredient formulation of the desired concentration. After 5 days, the efficacy in % is determined. 100% means that all the aphids have been killed; 0% means that no aphids have been killed.

Tetranychus urticae = Tetranychus urticae spray test, OP-resistant; format: in vivo; conditions: application rate 100 g/ha, spray on bean leaf discs, after 6 days
Protocol: Tetranychus urticae—Spray Test, OP-Resistant
(§1) Solvent: 78.0 parts by weight of acetone • • 1.5 parts by weight of dimethylformamide
(§2) Emulsifier: alkylaryl polyglycol ether
(§3) To produce a suitable active ingredient formulation, 1 part by weight of active ingredient is dissolved with the specified parts by weight of solvent and made up to the desired concentration with water containing an emulsifier concentration of 1000 ppm. To produce further test concentrations, the formulation is diluted with emulsifier-containing water.
Discs of bean leaves (Phaseolus vulgaris) infested with all stages of the greenhouse red spider mite (Tetranychus urticae) are sprayed with an active ingredient formulation of the desired concentration.
After 6 days, the efficacy in % is determined. 100% means that all the spider mites have been killed; 0% means that no spider mites have been killed.

Ctenocephalides felis [5] = experiment: Ctenocephalides felis oral test; format: in vivo; conditions: application rate 100 ppm in citrated cattle blood, after 2 days, adult cat fleas
Protocol: Ctenocephalides felis—Oral Test Solvent: dimethyl sulfoxide To produce a suitable active ingredient formulation, 10 mg of active ingredient are mixed with 0.5 ml of dimethyl sulfoxide. Dilution with citrated cattle blood gives the desired concentration. About 20 unfed adult cat fleas (Cienocephalides felis) are placed into a chamber which is closed at the top and bottom with gauze. A metal cylinder whose bottom end is closed with parafilm is placed onto the chamber. The cylinder contains the blood/active ingredient formulation, which can be imbibed by the fleas through the parafilm membrane. After 2 days, the kill in % is determined. 100% means that all of the fleas have been killed; 0% means that none of the fleas have been killed.

Lucilia cuprina = Lucilia cuprina test; format: in vivo; conditions: application rate 100 ppm, L1 larvae, after 2 days
Protocol: Lucilia cuprina Test Solvent: dimethyl sulfoxide To produce a suitable active ingredient formulation, 10 mg of active ingredient are mixed with 0.5 ml of dimethyl sulfoxide, and the concentrate is diluted with water to the desired concentration. About 20 L1 larvae of the Australian sheep blowfly (Lucilia cuprina) are transferred into a test vessel containing minced horsemeat and the active ingredient formulation of the desired concentration. After 2 days, the kill in % is determined. 100% means that all the larvae have been killed; 0% means that no larvae have been killed.

Musca domestica = Musca domestica test; format: in vivo; conditions: application rate 100 ppm, adult houseflies, after 2 days
Protocol: Musca domestica Test Solvent: dimethyl sulfoxide To produce a suitable active ingredient formulation, 10 mg of active ingredient are mixed with 0.5 ml of dimethyl sulfoxide, and the concentrate is diluted with water to the desired concentration. Vessels containing a sponge treated with sugar solution and the active ingredient formulation of the desired concentration are populated with 10 adult houseflies (Musca domestica). After 2 days, the kill in % is determined. 100% means that all of the flies have been killed; 0% means that none of the flies have been killed.

Boophilus microplus = Boophilus microplus injection test; format: in vivo; conditions: application rate 20 μg/animal, injection into engorged adult female cattle ticks, after 7 days
Protocol: Boophilus microplus—Injection Test Solvent: dimethyl sulfoxide To produce a suitable active ingredient formulation, 10 mg of active ingredient are mixed with 0.5 ml of solvent and the concentrate is diluted to the desired concentration with solvent. 1 μl of the active ingredient solution is injected into the abdomen of 5 engorged adult female cattle ticks (Boophilus microplus). The animals are transferred into dishes and kept in a climate-controlled room. Efficacy is assessed after 7 days by laying of fertile eggs. Eggs which are not visibly fertile are stored in a climate-controlled cabinet until the larvae hatch after about 42 days. An efficacy of 100% means that none of the ticks has laid any fertile eggs; 0% means that all the eggs are fertile.

Spodoptera frugiperda = Spodoptera frugiperda spray test; format: in vivo; conditions: application rate 100 g/ha, spray on maize leaf discs, after 7 days
Protocol: Spodoptera frugiperda—Spray Test Solvent: 78.0 parts by weight of acetone • • 1.5 parts by weight of dimethylformamide Emulsifier: alkylaryl polyglycol ether To produce a suitable active ingredient formulation, 1 part by weight of active ingredient is dissolved with the specified parts by weight of solvent and made up to the desired concentration with water containing an emulsifier concentration of 1000 ppm. To produce further test concentrations, the formulation is diluted with emulsifier-containing water. Leaf discs of maize (Zea mays) are sprayed with an active ingredient formulation of the desired concentration and, after drying, populated with caterpillars of the armyworm (Spodoptera frugiperda). After 7 days, the efficacy in % is determined. 100% means that all the caterpillars have been killed; 0% means that no caterpillar has been killed.

Meloidogyne incognita = Meloidogyne incognita test; format: in vivo; conditions: application rate 20 ppm, lettuce, after 14 days
Protocol: Meloidogyne incognita Test Solvent: 125.0 parts by weight of acetone To produce a suitable active ingredient formulation, 1 part by weight of active ingredient is mixed with the stated amount of solvent and the concentrate is diluted to the desired concentration with water. Vessels are filled with sand, active ingredient solution, an egg/larvae suspension of the southern root-knot nematode (Meloidogyne incognita) and lettuce seeds. The lettuce seeds germinate and the plants develop. The galls develop on the roots. After 14 days, the nematicidal efficacy in % is determined by the formation of galls. 100% means that no galls were found; 0% means that the number of galls on the treated plants corresponds to the untreated control.

Phaedon cochleariae = Phaedon cochleariae spray test; format: in vivo; conditions: application rate 100 g/ha, spray on Chinese cabbage leaf discs, after 7 days
Protocol: Phaedon cochleariae—Spray Test
as §1, §2, §3
Discs of Chinese cabbage leaves (Brassica pekinensis) are sprayed with an active ingredient formulation of the desired concentration and, after drying, populated with larvae of the mustard beetle (Phaedon cochleariae).
After 7 days, the efficacy in % is determined. 100% means that all the beetle larvae have been killed; 0% means that no beetle larvae have been killed.

Row | SMILES | efficacy (fleas dead or moribund) (Ctenocephalides felis [1]) [%] | chromatographic logP [2] | pest or weed control at 4 ppm (Myzus persicae [3]) [%] | pest or weed control at 100 g/ha (Myzus persicae [4]) [%] | efficacy (spider mites killed) (Tetranychus urticae) [%] | efficacy (kill) (Ctenocephalides felis [5]) [%] | efficacy (kill) (Lucilia cuprina) [%] | efficacy (kill) (Musca domestica) [%] | pest or weed control at 20 g/ha (Myzus persicae [4]) [%] | efficacy (laying of fertile eggs) (Boophilus microplus) [%] | efficacy (caterpillars killed) (Spodoptera frugiperda) [%] | nematicidal efficacy (formation of galls) (Meloidogyne incognita) [%] | efficacy (beetle larvae killed) (Phaedon cochleariae) [%]
1 | CCSc1c(-c2nc3cc(C(F)(F)F)ncc3n2C)nc2n1CCCC2 [Example I-001, 2-(3-Ethylsulfanyl-5,6,7,8-tetrahydroimidazo[1,2-a]pyridin-2-yl)-3-methyl-6-(trifluoromethyl)imidazo[4,5-c]pyridine] | 100 | 2.37 | – | – | – | – | – | – | – | – | – | – | –
2 | CCS(=O)(=O)c1c(-c2nc3cc(C(F)(F)F)ncc3n2C)nc2n1CC(C(F)(F)F)CC2 (stereo not shown) [Example I-003] | – | – | 100 | 100 | 90 | – | – | – | – | – | – | – | –
3 | CCS(=O)(=O)c1c(-c2nc3cc(C(F)(F)F)ncc3n2C)nc2n1CCC(C)C2 (stereo not shown) [Example I-007] | 100 | – | 100 | 100 | – | 80 | 100 | 100 | 100 | – | – | – | –
4 | CCS(=O)(=O)c1c(-c2nc3cc(C(F)(F)F)ncc3n2C)nc2n1CC(C)CC2 (stereo not shown) [Example I-009] | – | – | 100 | 100 | – | 80 | 100 | 100 | 90 | 100 | – | – | –
5 | CCS(=O)(=O)c1c(-c2nc3cc(C(F)(F)F)ncc3n2C)nc2n1CCC(C(F)(F)F)C2 (stereo not shown) [Example I-010] | – | – | 100 | – | – | – | – | – | 90 | – | 83 | – | –
6 | CCS(=O)(=O)c1c(-c2nc3cc(C(F)(F)F)cnc3n2C)nc2n1CCCC2 [Example I-011] | – | – | 100 | 90 | – | 95 | 100 | 80 | 90 | – | – | – | –
7 | CCS(=O)(=O)c1c(-c2nc3cc(C(F)(F)C(F)(F)F)ncc3n2C)nc2n1CCCC2 [Example I-012] | – | – | 100 | 90 | – | 100 | 100 | – | 90 | – | 83 | 90 | 100
8 | Cn1c(-c2nc3n(c2S(C)(=O)=O)CCCC3)nc2cc(C(F)(F)C(F)(F)F)ncc21 [Example I-013] | – | – | 100 | 90 | – | 95 | 100 | 80 | – | – | – | – | 83
9 | CCS(=O)(=O)c1c(-c2nc3cc(C(F)(F)C(F)(F)F)cnc3n2C)nc2n1CCCC2 [Example I-017] | – | – | 100 | 100 | – | – | – | – | 90 | – | 100 | – | –
